# Source: patent US20040106802A1, “Novel compounds and therapeutic uses thereof” (TORRENT PHARMACEUTICALS LTD., priority 2002, published 2004)
# Structures can show the parent of a compound that is named as a salt. Where two headings read alike, the source gives them in different places.
# Columns and labels:
# [1] = In-vitro free radical scavenging activity using DPPH free radical; conditions: 30° C., 30 minutes, 515 nm
# Text: Free Radical Scavenging Activity:
# To determine the in-vitro free radical scavenging activity of compounds of general formula-I on 2,2,-diphenyl-1-picrylhydrazyl (DPPH)radical (Ref: W. Brand-Williams, M. E. Cuvelier, C. Berset “Use of a free radical method to evaluate antioxidant activity”, Lebensm.- Wiss.u.Technol.,1995,28,Nr.1:25-30).
# To evaluate the free radical scavenging activity of compounds they are allowed to react with stable radical DPPH*. In its radical form, DPPH* absorbed at the characteristic wave length of 515 nm, but upon reduction by an antioxidant or radical scavenger (AH), the absorption disappears.
# 10^−4M solution of DPPH* was prepared in methanol.
# Various concentrations (10 mM, 1 mM, 0.5 mM, 0.25 mM and 0.125 mM) of drug solutions were prepared in methanol.
# 900 μl of DPPH radical solution was added to an eppendorf tube. To it was added 100 μl of methanol.
# 900 μl of DPPH radical solution was added to an eppendorf tube. To it was added 100 μl of various concentrations of drug solutions in methanol.
# The absorbance of control and test samples was recorded after incubation at 30° C. for 30 minutes, at 515 nm taking methanol as blank.
# The percent antioxidant activity was calculated according to the formula:
# % Antioxidant activity=100−[O.D of test sample/O.D of control*100]
# Porcine DPP-IV = target: T1, Porcine DPP-IV (Sus scrofa, UniProt P22411); assay: Assay of DPP-IV enzyme inhibitory activity (spectrophotometric, Gly-Pro-pNA cleavage); type: biochemical
# T1 construct: purchased Sigma-Aldrich Germany
# [2] = Porcine DPP-IV, Gly-Pro-pNA substrate, 30° C., mean ± SD of three experiments except compound Nos. 133 & 139, read-out: IC50 (μM) Mean ± SD, inhibitory activity on DPP-IV enzyme activity
# [3] = read-out: dipeptidyl peptidase-IV inhibitory IC50's in the range
# T1 sequence (P22411 whole entry): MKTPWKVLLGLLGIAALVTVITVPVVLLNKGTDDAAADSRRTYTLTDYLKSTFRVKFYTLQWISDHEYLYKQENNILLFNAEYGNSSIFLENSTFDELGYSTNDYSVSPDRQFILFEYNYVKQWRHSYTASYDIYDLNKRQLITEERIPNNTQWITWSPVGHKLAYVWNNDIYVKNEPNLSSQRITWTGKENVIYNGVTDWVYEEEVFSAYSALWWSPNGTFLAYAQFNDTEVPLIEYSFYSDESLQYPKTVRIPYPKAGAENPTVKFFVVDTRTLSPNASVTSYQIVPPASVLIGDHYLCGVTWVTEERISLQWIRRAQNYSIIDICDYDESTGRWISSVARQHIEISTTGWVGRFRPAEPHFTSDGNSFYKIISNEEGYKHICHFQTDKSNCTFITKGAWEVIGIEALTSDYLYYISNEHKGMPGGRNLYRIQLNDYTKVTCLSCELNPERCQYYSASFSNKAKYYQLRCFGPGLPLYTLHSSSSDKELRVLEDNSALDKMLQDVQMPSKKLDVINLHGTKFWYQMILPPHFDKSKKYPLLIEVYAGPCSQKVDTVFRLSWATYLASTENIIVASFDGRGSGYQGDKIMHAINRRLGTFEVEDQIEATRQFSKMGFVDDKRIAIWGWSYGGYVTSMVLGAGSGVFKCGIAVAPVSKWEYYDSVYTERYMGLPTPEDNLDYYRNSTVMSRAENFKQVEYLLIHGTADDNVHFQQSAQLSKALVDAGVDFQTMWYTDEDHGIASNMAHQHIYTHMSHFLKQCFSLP
IC50 (Porcine DPP-IV; [2]) [µM],IC50 (Porcine DPP-IV; [3]) [µM],Compound,"% Activity (antioxidant, DPPH) ([1]; Concentration 12.5 μM, 12.5 µM) [%]","% Activity (antioxidant, DPPH) ([1]; Concentration 25 μM, 25 µM) [%]","% Activity (antioxidant, DPPH) ([1]; Concentration 50 μM, 50 µM) [%]","% Activity (antioxidant, DPPH) ([1]; Concentration 100 μM, 100 µM) [%]","% Activity (antioxidant, DPPH) ([1]; Concentration 12.5 μM) [%]","% Activity (antioxidant, DPPH) ([1]; Concentration 25 μM) [%]","% Activity (antioxidant, DPPH) ([1]; Concentration 50 μM) [%]","% Activity (antioxidant, DPPH) ([1]; Concentration 100 μM) [%]"
1.03 ± 0.07,,"CCNN(CC(=O)N1CSCC1C#N)C1CCC(NS(C)(=O)=O)CC1 (centres unmarked) [Compound No. 97, 3-[1-oxo-2-[1-(1-(methanesulphonyl)aminocyclohexan-4-yl)-2-ethyl]hydrazino]ethyl-4-cyanothiazolidine]",,,,,18.06,38.30,66.99,91.67
0.2 ± 0.04,0.088 to 0.25,"N#Cc1ccc(NC(=O)CN2CCC(N(N)CC(=O)N3CSCC3C#N)CC2)cc1 (centres unmarked) [Compound No. 99, 3-[1-oxo-2-[1-(1-(2-oxo-2-(4-cyanophenyl)aminoethyl)piperidin-4-yl)]hydrazino]ethyl-4-cyanothiazolidine bis-trifluoroacetate]",,,,,15.12,24.87,39.13,53.33
0.488 ± 0.017,,"CCNN(CC(=O)N1CSCC1C#N)C1CCN(CC(=O)Nc2ccc(Cl)cn2)CC1 (centres unmarked) [Compound No. 101, 3-[1-oxo-2-[1-(1-(2-oxo-2-(5-chloropyridin-2-yl)aminoethyl)piperidin-4-yl)]-2 ethylhydrazino]ethyl-4-cyanothiazolidine tris-hydrochloride]",,,,,20.41,31.00,32.19,61.15
0.308 ± 0.06,,"N#CC1CSCN1C(=O)CN(N)C1CCN(CC(=O)Nc2ccc(C(F)(F)F)cc2)CC1 (centres unmarked) [Compound No. 102, 3-[1-oxo-2-[-1-(1-(2-oxo-2(4-trifluorophenyl)aminoethyl)piperidin-4-yl)]hydrazino]ethyl-4-cyanothiazolidine bis-trifluoroacetate]",,,,,20.90,29.56,34.26,50.15
0.523 ± 0.017,,"N#CC1CSCN1C(=O)CN(N)C1CCN(CC(=O)NC23CC4CC(CC(C4)C2)C3)CC1 (centres unmarked) [Compound No. 103, 3-[1-oxo-2-[1-(1-(2-oxo-2(-adamant-1-yl)aminoethyl)piperidin-4-yl)]hydrazino]ethyl-4-cyanothiazolidine bis-trifluoroacetate]",,,,,20.41,40.80,44.09,54.81
0.143 ± 0.02,,"N#CC1CSCN1C(=O)CN(N)C1CCN(CC(=O)Nc2ncccn2)CC1 (centres unmarked) [Compound No. 106, 3 [2-oxo-2-[1-(1-(2-oxo-2(pyrimidin-2-yl)aminoethyl)piperidin-4-yl)]hydrazino]ethyl-4-cyanothiazolidine tris-trifluoroacetate]",,,,,24.86,42.52,70.39,72.86
0.236 ± 0.025,0.088 to 0.25,"N#CC1CSCN1C(=O)CN(N)C1CCN(CC(=O)NC2CC2)CC1 (centres unmarked) [Compound No. 108, 3[1-oxo-2-[1-(1-(2-oxo-2-(cyclopropyl)aminoethyl)piperidin-4-yl)]hydrazino]ethyl-4-cyanothiazolidine bis-trifluoroacetate]",,,,,20.19,26.25,34.71,52.72
0.397 ± 0.02,,"CS(=O)(=O)NC1CCC(N(N)CC(=O)N2CSCC2C#N)CC1 (centres unmarked) [Compound No. 114, 3-[1-oxo-2-(1-(1-methanesulphonylamino-4-cyclohexyl)hydrazino)]ethyl-4-cyanothiazolidine hydrochloride]",,,,,19.23,39.37,78.16,92.76
0.226 ± 0.005,,"N#CC1CSCN1C(=O)CN(N)C1CCN(CC(=O)Nc2ncc(Br)s2)CC1 (centres unmarked) [compound 117, 3-[1-oxo-2-(1-(1-(2-oxo-2-(5-bromothiazol-2-yl)aminoethyl)piperidine-4-yl))hydrazino]ethyl-4-cyanothiazolidine, tris-trifluoroacetate]",,,,,,,,53.44
0.185 ± 0.01,,"Cc1nc(NC(=O)CN2CCC(N(N)CC(=O)N3CSCC3C#N)CC2)sc1C (centres unmarked) [compound 119, 3-[1-oxo-2-(1-(1-(2-oxo-2-(4,5-dimethylthiazole-2-yl)aminoethyl)piperidin-4-yl)) hydrazino]ethyl-4-cyanothiazolidine, tris-trifluoroacetate]",,,,,,,,54.93
0.09 ± 0.02,,"N#Cc1ccc(NC(=O)CN2CCC(N(N)CC(=O)N3CSCC3C#N)CC2)nc1 (centres unmarked) [compound 120, 3-[1-oxo-2-(1-(1-(2-oxo-2(5-cyanopyridin-2-yl)aminoethyl)piperidin-4-yl))hydrazino]ethyl-4-cyanothiazolidine, tris-trifluoroacetate]",,,,,,,,55.03
0.24 ± 0.025,,"N#CC1CSCN1C(=O)CN(N)C1CCN(CC(=O)Nc2ccc3c(c2)OCO3)CC1 (centres unmarked) [compound 130, 3-[1-oxo-2-(1-(1-(2-oxo-2-(3,4-methelenedioxyphenyl)aminoethyl)piperidine-4-yl))hydrazino]ethyl-4-cyanothiazolidine, bis-trifluoroacetate]",,,,,,,,56.37
0.0985 ± 0.012,,"N#CC1CSCN1C(=O)CN(N)C1CCN(CC(=O)Nc2ccc(S(N)(=O)=O)cc2)CC1 (centres unmarked) [compound 131, 3-[1-oxo-2-(1-(1-(2-oxo-2-(4-aminosulphonylphenyl)aminoethyl)piperidin-4-yl))hydrazino]ethyl-4-cyanothiazolidine, bis-trifluoroacetate]",,,,,,,,57.73

Compound,IC50 (Porcine DPP-IV; [2]) [µM],IC50 (Porcine DPP-IV; [3]) [µM],"% Activity (antioxidant, DPPH) ([1]; Concentration 12.5 μM, 12.5 µM) [%]","% Activity (antioxidant, DPPH) ([1]; Concentration 25 μM, 25 µM) [%]","% Activity (antioxidant, DPPH) ([1]; Concentration 50 μM, 50 µM) [%]","% Activity (antioxidant, DPPH) ([1]; Concentration 100 μM, 100 µM) [%]","% Activity (antioxidant, DPPH) ([1]; Concentration 12.5 μM) [%]","% Activity (antioxidant, DPPH) ([1]; Concentration 25 μM) [%]","% Activity (antioxidant, DPPH) ([1]; Concentration 50 μM) [%]","% Activity (antioxidant, DPPH) ([1]; Concentration 100 μM) [%]"
"CC(C)(C)C(=O)NC1CCC(N(N)CC(=O)N2CSCC2C#N)CC1.O=C(O)C(F)(F)F (centres unmarked) [Compound No. 96, 3-[1-oxo-2-[1-(1-(trimethylacetamido)cyclohexan-4-yl)]hydrazino]ethyl-4-cyanothiazolidine trifluoroacetate]",4 ± 0.144,,19.11,34.43,48.83,63.26,,,,
"CC(C)(C)C(=O)NC1CCC(N(N)CC(=O)N2CSCC2C#N)CC1.O=C(O)C(F)(F)F (centres unmarked) [Compound No. 98, 3-[1-oxo-2-[(1-(trimethylacetamido)cyclohexan-4-yl)]hydrazino]ethyl-4-cyanothiazolidine trifluoroacetate]",0.71 ± 0.01,,21.99,40.77,59.21,73.35,,,,
